Results published in patent publication US20250353825A1, “CANNABICYCLOL DERIVATIVES AND PREPARATION METHODS THEREOF” (priority 2023, published 2025).
Like-named read-outs stand apart in the source and are kept apart here.

How the values were obtained:
Type in all cases: cell-based
U251 = test: MTS cell viability assay, U251
Protocol: (§1) Primary viability screening: (1) the synthesized compounds 3a to 13d were respectively dissolved in DMSO to prepare a 40 μg/mL cannabicyclol and cannabicyclol derivative solutions.
(§2) (2) A control group: a 200 μL DMSO solvent.
(§3) (3) The solutions of compounds 3a to 13d were diluted in a twofold gradient to obtain cannabicyclol and cannabicyclol derivative solutions at concentrations of 40 μg/mL, 20 μg/mL, 10 μg/mL, 5 μg/mL, 2.5 μg/mL, 1.25 μg/mL, and 0.625 μg/mL, and 0.3125 μg/mL, respectively.
(§4) (4) Three glioblastoma stem cells (GSC-3, GSC-12, and GSC-18), three pancreatic cancer cell-derived stem cells (PANC-1-CSC, BXPC-3-CSC, and ASPC1-CSC), three liver cancer cell-derived stem cells (HepG2-CSC, MHCC97H-CSC, and SMMC7721-CSC), HEK-293T cells, 16 tumor cells (U251, U87, T98G, PANC1, BXPC3, ASPC1, HepG2, MHCC97H, SMMC7721, PC3, SKOV3, MDA-MB231, A549, HCT116, HEC-1B, MKN28), and differentiated glioblastoma stem cells (GSC-3diff and GSC-12diff) derived from GSC-3 and GSC-12 (all of the cells were provided by the Laboratory of Tumor Animal Model Preparation and Application Research, West China Hospital, Sichuan University) were inoculated into a 96-well plate at a concentration of 2×10^4 cells/well, and 100 μL of culture medium was then added to each well;
(§5) (5) 2) HEK-293T, GSC-3diff, GSC-12diff, and the 16 tumor cells were added with DMEM, 10% FBS, and 1% double antibody culture medium. Cancer stem cells (CSCs) were added with serum-free stem cell medium consisting of DMEM/F12, EGF (20 ng/mL), bFGF (20 ng/mL), B27 (1×), and 1% double antibody culture medium.
(§6) (6) Inoculated cells were put into a cell culture incubator for 24 hours, and after the cells were well adhered to the wall, the culture medium in the 96-well plate was discarded.
(§7) (7) 200 μL cannabicyclol and cannabicyclol derivatives solutions at different concentrations were added to the cultured cells.
(§8) (8) The experiment was set up with 3 replicates.
(§9) (9) The 96-well plate was placed in a cell culture incubator, and incubation was continued at 37° C. and 5% CO2 for 72 hours. Then, 100 μL of cannabicyclol and cannabicyclol derivative solution per well was discarded (100 μL of DMSO solvent was discarded for the control group), and 20 μL of LMTS (CellTiter AQueous Non-Radioactive Cell Proliferation Assay, #G3581) was mixed and continued to be placed in the cell incubator for 2 hours of incubation.
(§10) (10) The absorbance value at 490 nm was measured on an enzyme labeling apparatus, and the IC50 value was calculated.

[1] = MTS cell viability assay, HEK-293T (293T) normal cells; conditions: human
Protocol: as §1, §2, §3, §4, §5, §6, §7, §8, §9, §10

GSC-3 (3#-GSC) = test: MTS cell viability assay, glioblastoma stem cells GSC-3 (3#-GSC); conditions: for selective anti-glioma stem cell viability: judged in words from preliminary viability screening against 3#-GSC, 293T and U251
Protocol: as §1, §2, §3, §4, §5, §6, §7, §8, §9, §10

[2] = primary viability screening, 72 hours, MTS, test concentration not stated
[3] = HEK-293T (293T) normal cells, primary viability screening, 72 hours, MTS, test concentration not stated, read-out: Cell viability in 293T (%)

Compound | Cell viability in U251 (%) (U251; human, 72 h) | viability at 72 h [1] [%] | Cell viability in 3#-GSC (%) (GSC-3 (3#-GSC); 72 h) | selective anti-glioma stem cell viability (GSC-3 (3#-GSC)) | Cell viability in U251 (%) (U251; [2]) | viability at 72 h [1, 3] [%] | Cell viability in 3#-GSC (%) (GSC-3 (3#-GSC); [2]) | viability at 72 h ([1]; primary viability screening, 72 hours, MTS, test concentration not stated, read-out: Cell viability in 293T (%)) [%]
CC(C)(C)c1ccc(-c2cc(O)c3c(c2)OC2(C)CCC4C2C3C4(C)C)cc1 (centres unmarked) [Compound 3p] | 97 | ≥ 100 | 67 | weak selective anti-glioma stem cell viability |  |  |  | 
CCCCCc1cc(OCC(=O)NCCc2cc3ccccc3[nH]2)c2c(c1)OC1(C)CCC3C1C2C3(C)C (centres unmarked) [Compound 7h] |  |  |  |  | ≥100 | 87 | 72 | 
CC12CCC3C1C(c1c(O)cc(-c4ccc(Cl)cc4)cc1O2)C3(C)C (centres unmarked) [Compound 3s] | 91 | 64 | 49 |  |  |  |  | 
CC12CCC3C1C(c1c(O)cccc1O2)C3(C)C (centres unmarked) [Compound 3b] |  |  |  | selective anti-glioma stem cell viability | 97 |  | 32 | 97
Cc1cc(O)c2c(c1)OC1(C)CCC3C1C2C3(C)C (centres unmarked) [Compound 3c] | 88 | ≥ 100 | ≥100 |  |  |  |  | 
CCCCCc1cc(OC(=O)/C=C/c2ccc(OC)cc2)c2c(c1)OC1(C)CCC3C1C2C3(C)C (centres unmarked) [Compound 9h] |  |  |  |  | ≥100 | ≥ 100 | 90 | 
Cc1ccc(-c2cc(O)c3c(c2)OC2(C)CCC4C2C3C4(C)C)cc1 (centres unmarked) [Compound 3l] | 45 | 62 | 51 |  |  |  |  | 
CCCCCCc1cc(O)c2c(c1)OC1(C)CCC3C1C2C3(C)C (centres unmarked) [Compound 3f] |  |  |  | a certain degree of selective anti-glioma stem cell viability | 78 | 18 | 20 | 
CCCCCCCCc1cc(O)c2c(c1)OC1(C)CCC3C1C2C3(C)C (centres unmarked) [Compound 3h] |  |  |  |  | 75 | 16 | 87 | 
CCCCCc1cc(O)c2c(c1)OC1(C)CCC3C(c4ccccc4)C2C31 (centres unmarked) [Compound 3x] |  |  |  |  | 77 | 97 | 70 | 
CCCCCc1cc(OC(=O)Cc2ccc3ccccc3c2)c2c(c1)OC1(C)CCC3C1C2C3(C)C (centres unmarked) [Compound 9e] |  |  |  |  | ≥100 | ≥ 100 | ≥100 | 
CCCCCc1cc(OC(C)=O)c2c(c1)OC1(C)CCC3C1C2C3(C)C (centres unmarked) [Compound 9b] |  |  |  | both the viability and selectivity were maintained | 82 | 92 | 28 | 
CCCCCc1cc(OC(=O)/C=C/c2ccccc2)c2c(c1)OC1(C)CCC3C1C2C3(C)C (centres unmarked) [Compound 9g] |  |  |  |  | ≥100 | ≥ 100 | ≥100 | 
CCCCCc1cc(OCc2cn(S(=O)(=O)c3ccc(C)cc3)nn2)c2c(c1)OC1(C)CCC3C1C2C3(C)C (centres unmarked) [Compound 7i] |  |  |  |  | 21 | 71 | 50 | 
Cc1cccc(-c2cc(O)c3c(c2)OC2(C)CCC4C2C3C4(C)C)c1 (centres unmarked) [Compound 3m] | 90 | ≥ 100 | 42 | weak selective anti-glioma stem cell viability |  |  |  | 
CCCCCc1cc(OCC)c2c(c1)OC1(C)CCC3C1C2C3(C)C (centres unmarked) [Compound 7c] |  |  |  |  | 80 | 79 | ≥100 | 
CCCCCc1cc(O)c2c(c1)OC1(C)CCC3C(C)C2C31 (centres unmarked) [Compound 3u] |  |  |  |  | 72 | 78 | 30 | 
C=CCOc1cc(CCCCC)cc2c1C1C3C(CCC3(C)O2)C1(C)C (centres unmarked) [Compound 7a] |  |  |  |  | 81 | 77 | ≥100 | 
